{"source": "patent US20240285552A1", "about": "(priority 2020, published 2024)", "test_system": "B.1.617.2 Delta Variant of SARS-CoV-2", "experiment": "microbe, parasite or virus in culture", "type": "cell-based", "note": "Residues, ends and D or L forms follow the SMILES beside them. *: point of attachment. Cbz = O=C(OCc1ccccc1)*; CH2F = FC*"}
{"smiles": "CC(C)C[C@H](NC(=O)OCc1ccccc1)C(=O)N[C@@H](CC(C)C)C(=O)N[C@@H](Cc1ccc(O)cc1)C(=O)CF", "note": "[Calpain Inhibitor IV] (Cbz-Leu-Leu-Tyr-CH2F)", "values": [{"measurement": "Conc. at Max. % Inhibition", "result": 0.45, "unit": "µM"}, {"measurement": "Max. Inhibition", "result": 105.43, "unit": "%"}, {"measurement": "IC50", "setting": "read-out: IC 50 against B.1.617.2 Delta Variant Infection-Induced CPE", "result": 0.124, "unit": "µM"}]}
